Laboratory results reported in PMC8000919, “Validation of an LC-MS/MS Method to Quantify the New TRPC6 Inhibitor SH045 (Larixyl N-methylcarbamate) and Its Application in an Exploratory Pharmacokinetic Study in Mice” (Pharmaceuticals, 2021).
Read-outs that look alike come from different tables or passages of the source.

Key:
[1] = tested on: ischemic lungs explanted from mice; set-up: method as in PMID 29522264; conditions: ex vivo model of LIRE; cited from earlier work
[2] = Stability in stock and working solutions; type: physicochemical; conditions: nominal 1000 ng/mL
Protocol: Analytic stock solutions of SH045 and of IS (1 mg/mL each) were prepared in ACN and stored at −20 °C. Working solutions of SH045 and of IS (50 µg/mL) were freshly prepared by dilution with water/ACN 1:1 (v/v). Calibration and QC samples were prepared by addition of 2 μL SH045 working solutions and 2 μL IS solution to 18 μL of blank plasma, further processed identically to the preparation of plasma (see below). Freshly prepared calibration samples for SH045 in plasma comprised eight concentration levels analyzed in duplicates (2, 5, 10, 100, 200, 800, 1200 and 1600 ng/mL).
The stability of SH045 and IS in stock solutions stored at −20 °C for 28 days and in working solutions stored at 4 °C for 12 h was determined comparing the analyzed with the nominal concentration and accepted when accuracy was within 15%.

TRPC6 [3] = tested on: TRPC6; set-up: method as in PMID 29522264; conditions: stably TRPC6-transfected HEK293 cells; read-out: IC50 to inhibit Ca2+ influx; cited from earlier work
[4] = Stability in plasma QC samples under storage conditions; type: physicochemical, mice; conditions: for Stability in autosampler, Accuracy / Stability in autosampler, Mean ± SEM: extracted plasma QC samples, 6 °C; for Stability in autosampler, Accuracy / Stability in autosampler, Mean ± SEM / Freeze and thaw stability, Accuracy / Freeze and thaw stability, Mean ± SEM: 12 h; for Short-term stability, Accuracy / Short-term stability, Mean ± SEM / Freeze and thaw stability, Accuracy / Freeze and thaw stability, Mean ± SEM / Long-term stability, Accuracy / Long-term stability, Mean ± SEM: plasma QC samples; for Short-term stability, Accuracy / Short-term stability, Mean ± SEM: 25 °C, 4 h; for Freeze and thaw stability, Accuracy / Freeze and thaw stability, Mean ± SEM / Long-term stability, Accuracy / Long-term stability, Mean ± SEM: −20 °C; for Freeze and thaw stability, Accuracy / Freeze and thaw stability, Mean ± SEM: 3 cycles; for Long-term stability, Accuracy / Long-term stability, Mean ± SEM: 30 days
Protocol: […] The accuracy of the mean concentration at each of the three QC levels was accepted within ±15% of nominal concentration. All stability experiments were carried out in three replicates.

[5] = Exploratory plasma pharmacokinetics in mice after single i.p. administration, non-compartmental analysis; type: in vivo
Protocol: The practicability of the validated method for SH045 quantification was verified in a first exploratory pharmacokinetic study in mice. Male C57BL/6 mice (25–30 g body weight, Charles River, Sulzfeld, Germany) were housed in groups under standard conditions, allowed access to lab chow and water ad libitum. Animal experiments were performed according to the national regulations of animal welfare and were ethically approved by the local committee on animal welfare and the local authorities. Animal experiments were performed under strict consideration of the 3R principles (replace, reduce, refine), fully complying with the ARRIVE guidelines.
Solutions of SH045 for i.p. administration were prepared with DMSO (final concentration 0.5%) and Kolliphor® EL (5% in water). SH045 was administered i.p. as a single dose of 20 mg/kg body weight. Blood was collected from mice tail vein at 5, 15, 30, 60, 120, 180 and 360 min after administration via heparinized catheters. After centrifugation at 4000× g at 4 °C for 10 min, plasma was stored at −80 °C until analysis.
For sample preparation, 20 µL of thawed plasma were mixed with 2 µL of IS (50 µg/mL), vortexed for 30 s, added with 178 µL ice-cold ACN and shaken vigorously for 5 min. After centrifugation at 104,000× g for 15 min, the supernatant was filtered through a 0.2 µm pore-size syringe filter (Phenex-RC 4 mm, Phenomenex, Aschaffenburg, Germany) and stored in the autosampler at 6 °C until analysis by LC-MS/MS, as mentioned above.
The evaluation of basic pharmacokinetic parameters of SH045 (20 mg/kg, i.p.) following a single dose was performed by non-compartmental analysis using a commercially available software program Kinetica, version 5.1 (Thermo Fisher Scientific, Waltham, MA, USA). The Cmax and Tmax were obtained directly from the plasma concentration-time curve. The slope of the terminal phase of the SH045 concentration profile (ʎz) was estimated as absolute values from >4 data points using a log-linear regression analysis.
The area under the plasma concentration-time curve (AUC) for the time (t) providing the final measurable concentration (AUClast) was calculated using the log-linear trapezoidal rule.
The AUC0–∞ was then determined as AUClast + Clast/ʎz, where Clast is the last measurable concentration. The systemic total body clearance from plasma (CLp) was calculated as applied dose divided by AUC0–∞. MRT was calculated as AUMC0–∞/AUC0–∞, where area under the first-moment curve (AUMC) was defined as area under the curve of the product of time and the plasma drug concentration versus time from zero to infinity.
The volume of distribution, VZ, was calculated as CLp/ʎz. Finally, the AUCextra extrapolates the AUC from the last measured time point to infinity.

[6] = Plasma protein binding (PPB) by ultrafiltration; type: in vitro ADME; conditions: mouse plasma
Protocol: PPB of SH045 in mice plasma was determined at two concentrations, 100 and 800 ng/mL, using ultrafiltration. For that, 2 µL of working solutions of SH045 in DMSO (final concentration […]) were mixed with 298 µL blank plasma and incubated at 37 °C for 30 min. To determine the total concentration of SH045, 60 µL sample were taken out. The remaining 240 µL of spiked plasma were transferred to a centrifugal filter (Centrifugal Filter Units, 30 kDa cut-off, Millipore, County Cork, Ireland) and centrifuged at room temperature for 10 min at 1000× g. The filtrates were analyzed for the unbound SH045. The PPB was calculated as PPB (%) = (Ct − Cf)/Ct × 100, with Ct as total SH045 concentration in spiked plasma and Cf as unbound SH045 concentration in the filtrate.

[7] = tested on: TRPC3/6 channels of rat PASMC; set-up: method as in PMID 29522264; conditions: 1-oleyl-2-acetyl-sn-glycerol (OAG)-induced; cited from earlier work
TRPC6 [8] = tested on: TRPC6; set-up: method as in PMID 29522264; conditions: patch-clamp recordings; read-out: IC50 to block inward currents; cited from earlier work
TRPC3 = tested on: TRPC3; set-up: method as in PMID 29522264; conditions: TRPC6 over TRPC3; cited from earlier work
[9] = stock solution, −20 °C, 28 days
[10] = male, C57BL/6, mouse, ip, mice plasma, single dose 20 mg/kg body weight

SMILES: C=C[C@@](C)(O)CC[C@H]1C(=C)C[C@H](OC(=O)NC)[C@H]2C(C)(C)CCC[C@]12C [SH045, (1S,4S,4aR,8aS)-4-((S)-3-Hydroxy-3-methylpent-4-en-1-yl)-4a,8,8-trimethyl-3-methylenedecahydronaphthalen-1-yl methylcarbamate]
- edema formation after reperfusion [1]: reduced edema formation
- Stability, Accuracy [2, 9]: 106.6%
- Stability, Mean ± SEM [2, 9]: 1066 ± 9 ng/mL
- Stability, Accuracy ([2]; working solution, 4 °C, 12 h): 103.7%
- Stability, Mean ± SEM ([2]; working solution, 4 °C, 12 h): 1037 ± 10 ng/mL
- IC50 (TRPC6 [3]): 63 nM
- Stability in autosampler, Accuracy ([4]; nominal 5 ng/mL): 99.0%
- Stability in autosampler, Mean ± SEM ([4]; nominal 5 ng/mL): 5.0 ± 0.2 ng/mL
- Stability in autosampler, Accuracy ([4]; nominal 800 ng/mL): 100.8%
- Stability in autosampler, Mean ± SEM ([4]; nominal 800 ng/mL): 807 ± 28 ng/mL
- Stability in autosampler, Accuracy ([4]; nominal 1200 ng/mL): 104.7%
- Stability in autosampler, Mean ± SEM ([4]; nominal 1200 ng/mL): 1256 ± 50 ng/mL
- Short-term stability, Accuracy ([4]; nominal 5 ng/mL): 107.6%
- Short-term stability, Mean ± SEM ([4]; nominal 5 ng/mL): 5.4 ± 0.1 ng/mL
- Short-term stability, Accuracy ([4]; nominal 800 ng/mL): 101.9%
- Short-term stability, Mean ± SEM ([4]; nominal 800 ng/mL): 816 ± 2 ng/mL
- Short-term stability, Accuracy ([4]; nominal 1200 ng/mL): 98.8%
- Short-term stability, Mean ± SEM ([4]; nominal 1200 ng/mL): 1186 ± 36 ng/mL
- Freeze and thaw stability, Accuracy ([4]; nominal 5 ng/mL): 97.2%
- Freeze and thaw stability, Mean ± SEM ([4]; nominal 5 ng/mL): 4.9 ± 0.2 ng/mL
- Freeze and thaw stability, Accuracy ([4]; nominal 800 ng/mL): 90.1%
- Freeze and thaw stability, Mean ± SEM ([4]; nominal 800 ng/mL): 721 ± 8 ng/mL
- Freeze and thaw stability, Accuracy ([4]; nominal 1200 ng/mL): 90.2%
- Freeze and thaw stability, Mean ± SEM ([4]; nominal 1200 ng/mL): 1083 ± 41 ng/mL
- Long-term stability, Accuracy ([4]; nominal 5 ng/mL): 107.3%
- Long-term stability, Mean ± SEM ([4]; nominal 5 ng/mL): 5.4 ± 0.3 ng/mL
- Long-term stability, Accuracy ([4]; nominal 800 ng/mL): 95.4%
- Long-term stability, Mean ± SEM ([4]; nominal 800 ng/mL): 763 ± 9 ng/mL
- Long-term stability, Accuracy ([4]; nominal 1200 ng/mL): 99.9%
- Long-term stability, Mean ± SEM ([4]; nominal 1200 ng/mL): 1199 ± 29 ng/mL
- plasma concentration relative to IC50 for Ca2+ influx ([5]; five hours after administration of 20 mg/kg): at least two-fold higher
- AUC(0-inf) [5, 10]: 1470 ng·h/mL
- AUC(0-t) [5, 10]: 1410 ng·h/mL
- Cmax [5, 10]: 756 ng/mL
- MRT [5, 10]: 1.9 h
- Tmax [5, 10]: 0.5 h
- half-life ([5]; male, C57BL/6, mouse, plasma, ip, 20 mg/kg, mice plasma, single dose 20 mg/kg body weight): 1.3 h
- T1/2 ([5]; mice plasma, single dose 20 mg/kg body weight, i.p., 20 mg/kg): 1.31 h
- % AUC (AUCextra as percent) ([5]; mice plasma, single dose 20 mg/kg i.p., extrapolated part of AUC): 4.3%
- fraction unbound at 30 min, 100 ng/mL ([6]; 100 ng/mL SH045, ultrafiltration): 0.022
- fraction unbound at 30 min, 800 ng/mL ([6]; 800 ng/mL SH045, ultrafiltration): 0.003
- effect on OAG-induced Ca2+ entry [7]: inhibited
- IC50 (TRPC6 [8]): 5.8 nM
- subtype selectivity over TRPC3 (TRPC3): 13 fold
